Assay results as given in ChEMBL document CHEMBL4038271, “Therapeutic potentials of baicalin and its aglycone, baicalein against inflammatory disorders” (Eur J Med Chem, 2017).
Values after ≈ are worked out from the molar mass of the structure shown. Each block holds one compound with its values, some of them ahead of it.

Assays:
HMC1 = test: Cytotoxicity against HMC1 cells assessed as reduction in cell viability at 1.8 to 30 uM after 24 hrs by trypan blue assay relative to control; assay type: cell-based; conditions: human, hmc1, 24 h
SH-SY5Y [1] = test: Neuroprotective activity against 6-OHDA-induced cell death in human SH-SY5Y cells assessed as apoptotic cells at 0.5 ug/ml pretreated for 1 hr followed by 6-OHDA challenge measured after 24 hrs by propidium iodide/RNase staining based flow cytometry (reference value: 31.56 %); assay type: functional
SH-SY5Y [2] = test: Neuroprotective activity against 6-OHDA-induced cell death in human SH-SY5Y cells assessed as apoptotic cells at 5 ug/ml pretreated for 1 hr followed by 6-OHDA challenge measured after 24 hrs by propidium iodide/RNase staining based flow cytometry (reference value: 31.56 %); assay type: functional
Rattus norvegicus [3] = test: Neuroprotective activity in 6-OHDA-induced lesioned Sprague-Dawley rat assessed as increase in TH-immunopositive neurons at 200 mg/kg, ig administered once daily for 15 days measured on day 42 post 6-OHDA lesion induction by immunohistochemical analysis relative to control; assay type: functional
DU-145 [4] = test: Anti-tumor activity against human DU145 cells xenografted in SCID mouse assessed as tumor volume at 10 mg/kg, po administered once daily for 28 days measured every seven days during compound dosing (reference value: 314 +/- 54.8 mm3); assay type: functional
DU-145 [5] = test: Anti-tumor activity against human DU145 cells xenografted in SCID mouse assessed as tumor volume at 20 mg/kg, po administered once daily for 28 days measured every seven days during compound dosing (reference value: 314 +/- 54.8 mm3); assay type: functional
DU-145 [6] = test: Anti-tumor activity against human DU145 cells xenografted in SCID mouse assessed as tumor volume at 30 mg/kg, po administered once daily for 28 days measured every seven days during compound dosing (reference value: 314 +/- 54.8 mm3); assay type: functional
NCI-H460 = test: Cytotoxicity against human H460 cells assessed as reduction in cell viability at 50 uM after 72 hrs by trypan blue staining based assay relative to control; assay type: functional
[7] = Apparent permeability of the compound; assay type: physicochemical; conditions: not told
[8] = Tmax in Sprague-Dawley rat at 224 umol/kg, po administered via gastric gavage; assay type: ADME, organism-based; conditions: in vivo
[9] = (§1) Oral bioavailability in Sprague-Dawley rat at 224 umol/kg administered via gastric gavage; assay type: ADME, organism-based; conditions: Sprague-Dawley, in vivo, 224 umol/kg
Rattus norvegicus [10] = test: In vivo inhibition of P-gp in Sprague-Dawley rat assessed as increase in nimodipine AUC at 2 mg/kg, po pretreated for 30 mins followed by nimodipine addition measured after 36 hrs by HPLC method relative to nimodipine alone; assay type: functional
Rattus norvegicus [11] = test: In vivo inhibition of P-gp in Sprague-Dawley rat assessed as increase in nimodipine AUC at 8 mg/kg, po pretreated for 30 mins followed by nimodipine addition measured after 36 hrs by HPLC method relative to nimodipine alone; assay type: functional
Cytochrome P450 3A4 = Cytochrome P450 3A4 (Homo sapiens, UniProt P08684); test: Inhibition of human CYP3A4 expressed in baculovirus infected insect cells using 7-benzyloxy-4-trifluoromethylcoumarin as substrate measured after 45 mins in presence of NADPH by spectrofluorometric method; assay type: ADME
Chain of Cytochrome P450 3A4 (P08684 whole entry): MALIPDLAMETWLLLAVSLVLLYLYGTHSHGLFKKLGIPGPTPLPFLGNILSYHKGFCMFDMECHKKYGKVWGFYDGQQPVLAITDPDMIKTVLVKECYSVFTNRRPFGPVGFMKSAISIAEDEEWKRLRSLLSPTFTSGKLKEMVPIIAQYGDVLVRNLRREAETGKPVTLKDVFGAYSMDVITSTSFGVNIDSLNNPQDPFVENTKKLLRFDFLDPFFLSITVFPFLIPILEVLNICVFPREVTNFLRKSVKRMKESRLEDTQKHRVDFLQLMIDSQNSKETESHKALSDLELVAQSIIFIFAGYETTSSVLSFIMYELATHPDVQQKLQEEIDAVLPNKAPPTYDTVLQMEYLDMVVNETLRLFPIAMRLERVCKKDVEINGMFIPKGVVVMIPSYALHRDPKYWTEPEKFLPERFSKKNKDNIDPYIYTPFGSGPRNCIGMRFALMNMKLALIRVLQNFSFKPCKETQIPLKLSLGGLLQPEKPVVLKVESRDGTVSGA

Rattus norvegicus [12] = test: In vivo inhibition of P-gp in Sprague-Dawley rat assessed as increase in cyclosporine Cmax at 112 uM/kg, po administered via gastric gavage coadministered with 2.5 mg/kg cyclosporine measured after 720 to 1440 mins by monoclonal fluorescence polarization assay relative to control; assay type: functional; set-up: scale not given: the % may be the effect or the level left
Rattus norvegicus [13] = test: In vivo inhibition of P-gp in Sprague-Dawley rat assessed as increase in cyclosporine AUC at 112 uM/kg, po administered via gastric gavage coadministered with 2.5 mg/kg cyclosporine measured after 720 to 1440 mins by monoclonal fluorescence polarization assay relative to control; assay type: functional; set-up: scale not given: the % may be the effect or the level left
Rattus norvegicus [14] = test: In vivo inhibition of CYP3A4 in Sprague-Dawley rat assessed as increase in cyclosporine Cmax at 112 uM/kg, po administered via gastric gavage coadministered with 2.5 mg/kg cyclosporine measured after 720 to 1440 mins by monoclonal fluorescence polarization assay relative to control; assay type: ADME, organism-based; set-up: scale not given: the % may be the effect or the level left
Rattus norvegicus [15] = test: In vivo inhibition of CYP3A4 in Sprague-Dawley rat assessed as increase in cyclosporine AUC at 112 uM/kg, po administered via gastric gavage coadministered with 2.5 mg/kg cyclosporine measured after 720 to 1440 mins by monoclonal fluorescence polarization assay relative to control; assay type: ADME, organism-based; set-up: scale not given: the % may be the effect or the level left
Mus musculus [16] = test: Anti-inflammatory activity in adjuvant-induced C57BL/6 mouse arthritis model assessed as reduction in ankle swelling by measuring splenic Th17 cell population expansion at 100 mg/kg, ip administered once daily for 1 week starting from 14 days post-immunization measured by flow cytometry relative to control; assay type: functional; set-up: scale not given: the % may be the effect or the level left
Mus musculus [17] = test: Antiinflammatory activity in dextran sodium sulphate-induced C57BL/6 mouse colitis model assessed as disease activity index at 100 mg/kg, ig administered once daily pretreated for 3 days followed by DSS challenge and subsequent treatment for 7 days measured 24 hrs post last dose (reference value: 5.67 +/- 1.03); assay type: functional
Rattus norvegicus [18] = test: Anti-hyperplasia activity in carotid arterial balloon-injury-induced Sprague-Dawley rat neointimal hyperplasia model assessed as reduction in thickness of left carotid artery by measuring intima to media thickness ratio at 70 mg/kg administered once daily via gastric gavage from 3 days before balloon injury to 28 days after the injury measured post last dose by haematoxylin/eosin staining based assay relative to control; assay type: functional; set-up: scale not given: the % may be the effect or the level left
Mus musculus [19] = test: Anti-inflammatory activity in proteolipid protein 139-151/complete freund's adjuvant-induced SJL/J mouse autoimmune encephalomyelitis model assessed as reduction in clinical score at 5 to 10 mg/kg, ip administered once daily pretreated for 1 day followed by immunization and subsequent treatment for 3 days measured up to 6 days; assay type: functional
[20] = Solubility of the compound in water; assay type: physicochemical; conditions: buffer
Rattus norvegicus [21] = test: as §1; assay type: ADME, organism-based; conditions: in vivo
Rattus norvegicus [22] = test: In vivo inhibition of P-gp in Sprague-Dawley rat assessed as increase in cyclosporine Cmax at 112 uM/kg, po administered via gastric gavage coadministered with 2.5 mg/kg cyclosporine measured after 540 mins by monoclonal fluorescence polarization assay relative to control; assay type: functional; set-up: scale not given: the % may be the effect or the level left
Rattus norvegicus [23] = test: In vivo inhibition of P-gp in Sprague-Dawley rat assessed as increase in cyclosporine AUC at 112 uM/kg, po administered via gastric gavage coadministered with 2.5 mg/kg cyclosporine measured after 540 mins by monoclonal fluorescence polarization assay relative to control; assay type: functional; set-up: scale not given: the % may be the effect or the level left
Rattus norvegicus [24] = test: In vivo inhibition of CYP3A4 in Sprague-Dawley rat assessed as increase in cyclosporine Cmax at 112 uM/kg, po administered via gastric gavage coadministered with 2.5 mg/kg cyclosporine measured after 540 mins by monoclonal fluorescence polarization assay relative to control; assay type: ADME, organism-based; set-up: scale not given: the % may be the effect or the level left; conditions: 9 h
Rattus norvegicus [25] = test: In vivo inhibition of CYP3A4 in Sprague-Dawley rat assessed as increase in cyclosporine AUC at 112 uM/kg, po administered via gastric gavage coadministered with 2.5 mg/kg cyclosporine measured after 540 mins by monoclonal fluorescence polarization assay relative to control; assay type: ADME, organism-based; set-up: scale not given: the % may be the effect or the level left; conditions: 9 h
Rattus norvegicus [26] = test: In vivo inhibition of CYP1A2 in Sprague-Dawley rat assessed as increase in unbound phenacetin level in plasma at 450 mg/kg, iv coadministered with phenacetin by UV-HPLC method relative to phenacetin alone; assay type: ADME, organism-based

SMILES: O=c1cc(-c2ccccc2)oc2cc(O)c(O)c(O)c12 [BAICALEIN]
Activity (HMC1): 93 to 95%
Activity (SH-SY5Y [1]): 18.9%
Activity (SH-SY5Y [2]): 21.61%
Activity (Rattus norvegicus [3]): 265.52%
Activity (DU-145 [4]): 144.5 mm3
Activity (DU-145 [5]): 114.2 mm3
Activity (DU-145 [6]): 183 mm3
Activity (NCI-H460): 42%
Papp [7]: 17 ×10⁻⁶ cm/s
Tmax [8]: 0.167 h
bioavailability [9]: 0%
fold change (FC) (Rattus norvegicus [10]): 1.4
fold change (FC) (Rattus norvegicus [11]): 1.6
IC50 (Cytochrome P450 3A4): 9.2 µM
Activity (Rattus norvegicus [12]): 87.5%
Activity (Rattus norvegicus [13]): 150.2%
Activity (Rattus norvegicus [14]): 87.5%
Activity (Rattus norvegicus [15]): 150.2%

solubility [20]: 52 µg/mL (≈ 116 µM)
Papp [7]: 0.037 ×10⁻⁶ cm/s
Tmax [8]: 6.6 h
F (Rattus norvegicus [21]): 62%
Activity (Rattus norvegicus [24]): 408.1%
Activity (Rattus norvegicus [25]): 685.3%
fold change (FC) (Rattus norvegicus [26]): 2
SMILES: O=C(O)[C@H]1O[C@@H](Oc2cc3oc(-c4ccccc4)cc(=O)c3c(O)c2O)[C@H](O)[C@@H](O)[C@@H]1O [BAICALIN]
Activity (Mus musculus [16]): 40%
Activity_index (Mus musculus [17]): 3.03
Activity (Rattus norvegicus [18]): 55%
Activity (Mus musculus [19]): 2.2
Activity (Rattus norvegicus [22]): 408.1%
Activity (Rattus norvegicus [23]): 685.3%
